Measurements taken from patent US4009181A, “Cyclopenta[b]indole-2-carboxylic acids and derivatives thereof” (Hoffmann-La Roche Inc., priority 1974, dated 1977).

What was measured:
[1] = antipyretic activity: Brewer's yeast foot injection, foot and rectal temperatures; format: in vivo, male rats; details: rats; 200 mg/kg.
Protocol: Control animals are given 1 cc/100 g. body weight of the vehicle. The test drug animals are given 200 mg/kg. of the drug in a concentration of 2 percent. Soluble and insoluble compounds are administered orally in aqueous suspended vehicle. One hour after administration of drug, these rats are injected with 0.1 ml. of a 2 percent suspension of Brewer's yeast beneath the plantar surface of the foot. Two hours after drug injections and 1 hour after the irritant, the temperatures of the inflammed foot, the normal foot and the rectum are recorded with the help of a thermocouple. Results are reported as degrees change from controls. The temperatures are averaged for the inflamed foot, the normal foot and the rectum. The averages for the treated groups are compared with the control averages and the results noted as degrees change from control.

[2] = LD50 p.o. in mice (acute toxicity); format: in vivo
[3] = analgesic activity: hot plate reaction time; format: in vivo, male mice; details: mice; dose ranging from 38 mg. to about 220 mg.
Protocol: The method determines the reaction time of mice dropped onto a hot plate maintained at 55±0.5° C. Six groups of male mice (5 mice/group) weighing between 20-30 grams are utilized. The initial reaction time of these mice is determined once, and the reaction time of each group is then averaged. The mice are then administered the vehicle and/or the compound to be tested by the oral, intraperitoneal or subcutaneous route. The average reaction time of each group is determined again at 30, 60 and 90 minutes after compound administration and is compared to controls. Reaction time is recorded as percent changes from control. All groups are averaged before and after treatment. A combined reaction time average (recorded as percent change of reaction time threshhold from controls) for all three periods is plotted against dose on graph paper, and a curve is drawn. The ED 50 is read from this curve.

O=C(O)C1CCc2c([nH]c3ccc(Cl)cc23)C1 (stereo not drawn) [6-chloro-1,2,3,4-tetrahydrocarbazole-2-carboxylic acid]
antipyretic activity [1]: antipyretic activity is observed | LD50 [2]: 1120 mg | analgesic activity [3]: analgesic activity is observed
